Columns and labels:
Experiment in all cases: IA-DTB cysteine engagement
Type in all cases: binding
Conditions in all cases: 22Rv1 cells, 20 μM probe, 1 h, relative to DMSO
HSDL1_C265 = biological target: T1, HSDL1_C265 (Homo sapiens, UniProt Q3SXM5)
T1 construct: endogenous in cells; host or cells: 22Rv1
T1 sequence (Q3SXM5 1-330): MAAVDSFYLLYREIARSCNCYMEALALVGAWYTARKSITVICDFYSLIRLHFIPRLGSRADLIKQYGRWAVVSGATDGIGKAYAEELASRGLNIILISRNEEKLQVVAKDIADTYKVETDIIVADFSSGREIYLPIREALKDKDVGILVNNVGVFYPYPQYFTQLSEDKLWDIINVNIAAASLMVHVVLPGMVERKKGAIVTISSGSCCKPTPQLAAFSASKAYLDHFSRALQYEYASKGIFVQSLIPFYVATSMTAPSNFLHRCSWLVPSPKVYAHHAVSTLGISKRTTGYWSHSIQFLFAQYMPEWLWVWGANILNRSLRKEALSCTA
Outline: (§1)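 First, cells are exposed to electrophilic probes in situ. Next, lysates are labeled with IA-DTB (1 h, ambient temperature), reduced, alkylated and trypsin-digested. Then, IA-DTB peptides are enriched on streptavidin, TMT-labeled and analyzed, with ratios taken against DMSO channels.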

PRRT3_C720 = biological target: T2, PRRT3_C720 (Homo sapiens, UniProt Q5FWE3)
T2 construct: endogenous in cells; host or cells: 22Rv1
T2 sequence (Q5FWE3 28-981): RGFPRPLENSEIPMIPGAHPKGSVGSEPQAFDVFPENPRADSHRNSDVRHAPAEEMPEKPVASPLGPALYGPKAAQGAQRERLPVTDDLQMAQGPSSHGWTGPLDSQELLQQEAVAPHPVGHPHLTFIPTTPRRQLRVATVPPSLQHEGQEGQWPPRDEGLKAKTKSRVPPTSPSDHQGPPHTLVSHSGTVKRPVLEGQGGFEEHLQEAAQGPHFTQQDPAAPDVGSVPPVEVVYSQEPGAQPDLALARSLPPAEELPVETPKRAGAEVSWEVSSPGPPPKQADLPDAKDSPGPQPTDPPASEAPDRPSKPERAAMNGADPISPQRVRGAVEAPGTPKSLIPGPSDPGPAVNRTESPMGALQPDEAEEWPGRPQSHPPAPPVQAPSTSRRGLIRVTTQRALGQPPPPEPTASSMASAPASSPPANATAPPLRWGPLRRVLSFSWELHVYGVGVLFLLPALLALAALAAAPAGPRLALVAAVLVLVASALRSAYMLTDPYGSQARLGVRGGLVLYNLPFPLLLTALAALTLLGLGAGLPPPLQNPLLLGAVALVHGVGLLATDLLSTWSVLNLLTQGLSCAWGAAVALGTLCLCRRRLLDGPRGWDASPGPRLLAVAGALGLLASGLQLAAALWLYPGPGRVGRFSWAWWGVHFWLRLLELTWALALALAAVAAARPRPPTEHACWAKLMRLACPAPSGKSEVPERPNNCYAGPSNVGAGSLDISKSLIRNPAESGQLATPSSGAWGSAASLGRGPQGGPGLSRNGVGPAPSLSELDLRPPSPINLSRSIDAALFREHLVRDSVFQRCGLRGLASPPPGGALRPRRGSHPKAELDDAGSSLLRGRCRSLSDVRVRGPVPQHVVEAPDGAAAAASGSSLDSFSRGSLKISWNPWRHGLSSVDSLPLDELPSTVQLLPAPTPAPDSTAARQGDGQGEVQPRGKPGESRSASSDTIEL
Outline: as §1

GSTO1_C32 = biological target: T3, GSTO1_C32 (Homo sapiens, UniProt P78417)
T3 construct: endogenous in cells; host or cells: 22Rv1
T3 sequence (P78417 1-241): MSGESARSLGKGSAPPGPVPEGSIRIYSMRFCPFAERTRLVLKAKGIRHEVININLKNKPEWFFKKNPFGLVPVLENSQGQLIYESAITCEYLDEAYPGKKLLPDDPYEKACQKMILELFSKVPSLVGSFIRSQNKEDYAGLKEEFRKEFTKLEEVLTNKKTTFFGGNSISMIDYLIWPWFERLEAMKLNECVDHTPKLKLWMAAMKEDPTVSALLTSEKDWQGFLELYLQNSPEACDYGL
Outline: as §1

PNPLA8_C100 = biological target: T4, PNPLA8_C100 (Homo sapiens, UniProt Q9NP80)
T4 construct: endogenous in cells; host or cells: 22Rv1
T4 sequence (Q9NP80 1-782): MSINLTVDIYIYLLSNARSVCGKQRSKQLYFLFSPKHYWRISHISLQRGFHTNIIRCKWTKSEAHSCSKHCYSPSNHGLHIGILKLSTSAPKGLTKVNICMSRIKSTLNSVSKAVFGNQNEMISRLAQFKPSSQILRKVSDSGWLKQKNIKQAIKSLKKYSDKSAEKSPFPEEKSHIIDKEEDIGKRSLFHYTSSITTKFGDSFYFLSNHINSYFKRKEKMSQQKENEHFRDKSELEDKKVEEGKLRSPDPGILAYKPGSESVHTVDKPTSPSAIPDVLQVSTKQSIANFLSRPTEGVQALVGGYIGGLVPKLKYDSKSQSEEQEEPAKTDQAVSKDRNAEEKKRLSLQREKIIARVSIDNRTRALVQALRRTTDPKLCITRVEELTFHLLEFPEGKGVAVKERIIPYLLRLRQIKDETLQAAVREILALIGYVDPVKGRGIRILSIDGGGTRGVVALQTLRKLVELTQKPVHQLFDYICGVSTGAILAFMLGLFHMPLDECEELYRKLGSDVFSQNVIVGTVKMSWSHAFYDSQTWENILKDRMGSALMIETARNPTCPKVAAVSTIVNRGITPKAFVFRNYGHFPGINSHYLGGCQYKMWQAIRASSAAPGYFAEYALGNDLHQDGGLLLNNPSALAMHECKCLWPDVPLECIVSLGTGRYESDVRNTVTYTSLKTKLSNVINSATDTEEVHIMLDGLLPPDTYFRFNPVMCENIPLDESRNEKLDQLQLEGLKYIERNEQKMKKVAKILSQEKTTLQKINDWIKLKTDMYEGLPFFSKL
Outline: as §1

Compound | % engagement HSDL1_C265 (HSDL1_C265) [%] | % engagement PRRT3_C720 (PRRT3_C720) [%] | % engagement GSTO1_C32 (GSTO1_C32) [%] | % engagement PNPLA8_C100 (PNPLA8_C100) [%]
C=CC(=O)N1C[C@@H](c2ccc(Br)cc2)[C@H]1C(=O)Nc1cccc2cccnc12 [MY-1A, (2S,3R)-1-acryloyl-3-(4-bromophenyl)-N-(quinolin-8-yl)azetidine-2-carboxamide] | 52 | 47 | 22 | 67
C=CC(=O)N1C[C@H](c2ccc(Br)cc2)[C@@H]1C(=O)Nc1cccc2cccnc12 [MY-1B, (2R,3S)-1-acryloyl-3-(4-bromophenyl)-N-(quinolin-8-yl)azetidine-2-carboxamide] | 54 | 53 | 82 | 59.5
C=CC(=O)N1C[C@H](c2ccc(Br)cc2)[C@H]1C(=O)Nc1cccc2cccnc12 [MY-3A, (2S,3S)-1-acryloyl-3-(4-bromophenyl)-N-(quinolin-8-yl)azetidine-2-carboxamide] | 64.25 | 45.5 | 79 | 48
C=CC(=O)N1C[C@H](c2ccc(Br)cc2)[C@H]1C(=O)Nc1cccc2cccnc12 [MY-3B, (2S,3S)-1-acryloyl-3-(4-bromophenyl)-N-(quinolin-8-yl)azetidine-2-carboxamide] | 82 | 71 | 80.5 | 70.5

— patent US20250034216A1, “STEREOSELECTIVE COVALENT LIGANDS FOR ONCOGENIC AND IMMUNOLOGICAL PROTEINS” (The Scripps Research Institute, priority 2021, published 2025)
